# Assay results published in ChEMBL document CHEMBL1147642, “Elimination of antibacterial activities of non-peptide luteinizing hormone-releasing hormone (LHRH) antagonists derived from erythromycin A” (Bioorg Med Chem Lett, 2004).
# Legend:
# Streptococcus agalactiae = assay: Minimum inhibitory activity against Streptococcus agalactiae CMX 508; assay type: functional
# Streptococcus pyogenes = assay: Minimum inhibitory activity against Streptococcus pyogenes EES61; assay type: functional
# Staphylococcus aureus = assay: Minimum inhibitory activity against Staphylococcus aureus ATCC 6538P; assay type: functional
# Enterococcus faecium = assay: Minimum inhibitory activity against Enterococcus faecium ATCC 8043; assay type: functional
# Micrococcus luteus = assay: Minimum inhibitory activity against Micrococcus luteus ATCC 9341; assay type: functional
# Streptococcus equinus = assay: Minimum inhibitory activity against Streptococcus bovis A-5169; assay type: functional
# [1] = tested on: Staphylococcus epidermidis; assay: Minimum inhibitory activity against Staphylococcus epidermidis 3519; assay type: functional
# [2] = target: T1, Gonadotropin-releasing hormone receptor (Homo sapiens, UniProt P30968); assay: Binding affinity against human luteinizing releasing hormone receptor cloned in CHO cells; assay type: cell-based
# T1 sequence (P30968 whole entry): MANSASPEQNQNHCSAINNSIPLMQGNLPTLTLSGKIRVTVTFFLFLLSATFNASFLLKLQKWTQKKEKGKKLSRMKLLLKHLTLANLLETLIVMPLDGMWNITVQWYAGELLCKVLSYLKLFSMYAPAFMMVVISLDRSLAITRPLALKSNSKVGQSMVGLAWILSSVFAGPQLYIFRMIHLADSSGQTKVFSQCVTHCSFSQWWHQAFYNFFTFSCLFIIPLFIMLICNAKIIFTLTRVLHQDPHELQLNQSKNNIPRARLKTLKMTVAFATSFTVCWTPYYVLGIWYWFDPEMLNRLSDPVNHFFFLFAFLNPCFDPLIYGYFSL
MIC (Streptococcus agalactiae) [µg/mL],MIC (Streptococcus pyogenes) [µg/mL],MIC (Staphylococcus aureus) [µg/mL],MIC (Enterococcus faecium) [µg/mL],MIC (Micrococcus luteus) [µg/mL],MIC (Streptococcus equinus) [µg/mL],MIC [1] [µg/mL],Ki [2] [nM],SMILES
0.39,0.39,100,1.56,1.56,0.39,50,,CC[C@H]1OC(=O)[C@H](C)[C@@H](OC(=O)N2C(=O)OC[C@@H]2C)[C@H](C)[C@@H](OC2O[C@H](C)C[C@H](N(C)CC3CC3)[C@H]2O)[C@@](C)(OC)C[C@@H](C)C(=O)[C@H](C)[C@H]2N(CCc3ccc(F)c(Cl)c3)C(=O)O[C@]12C (some centres undefined)
> 100,> 100,> 100,> 100,> 100,> 100,> 100,27.5,CCC(C)N(CC1CC1)[C@H]1C[C@@H](C)OC(O[C@@H]2[C@@H](C)[C@H](OC3C[C@@](C)(OC)[C@@H](O)[C@H](C)O3)[C@@H](C)C(=O)O[C@H](CC)[C@@]3(C)OC(=O)N(CCc4ccc(Cl)cc4)[C@@H]3[C@@H](C)C(=O)[C@H](C)C[C@]2(C)OC)[C@@H]1O (some centres undefined)
3.1,3.1,> 100,3.1,3.1,3.1,> 100,1.51,CC[C@H]1OC(=O)[C@H](C)[C@@H](OC2C[C@@](C)(OC)[C@@H](O)[C@H](C)O2)[C@H](C)[C@@H](OC2O[C@H](C)C[C@H](N(C)C3CCCC3)[C@H]2O)[C@@](C)(OC)C[C@@H](C)C(=O)[C@H](C)[C@H]2N(CCc3ccc(Cl)c(Cl)c3)C(=O)O[C@]12C (some centres undefined)
0.02,,1.56,0.2,,0.2,1.56,,CC[C@H]1OC(=O)[C@H](C)[C@@H](OC2C[C@@](C)(OC)[C@@H](O)[C@H](C)O2)[C@H](C)[C@@H](OC2O[C@H](C)C[C@H](N(C)C(C)C)[C@H]2O)[C@@](C)(OC)C[C@@H](C)C(=O)[C@H](C)[C@H]2N(CCc3ccc(Cl)cc3)C(=O)O[C@]12C (some centres undefined)
1.56,,> 100,1.56,,,> 100,13.2,CC[C@H]1OC(=O)[C@H](C)[C@@H](OC2C[C@@](C)(OC)[C@@H](O)[C@H](C)O2)[C@H](C)[C@@H](OC2O[C@H](C)C[C@H](N(C)CC3CC3)[C@H]2O)[C@@](C)(OC)C[C@@H](C)C(=O)[C@H](C)[C@H]2N(CCc3ccc(Cl)cc3)C(=O)O[C@]12C (some centres undefined)
0.78,0.78,> 100,3.1,3.1,0.78,> 100,,CC[C@H]1OC(=O)[C@H](C)[C@@H](OC(=O)N2C(=O)OC[C@@H]2C)[C@H](C)[C@@H](O[C@@H]2O[C@H](C)C[C@H](N(C)CC3CC3)[C@H]2O)[C@@](C)(OC)C[C@@H](C)C(=O)[C@H](C)[C@H]2N(CCc3ccc(Cl)c(Cl)c3)C(=O)O[C@]12C
50,25,> 100,25,25,25,> 100,0.851,CC[C@H]1OC(=O)[C@H](C)[C@@H](OC2C[C@@](C)(OC)[C@@H](O)[C@H](C)O2)[C@H](C)[C@@H](OC2O[C@H](C)C[C@H](N(CC3CC3)CC3CC3)[C@H]2O)[C@@](C)(OC)C[C@@H](C)C(=O)[C@H](C)[C@H]2N(CCc3ccc(F)c(Cl)c3)C(=O)O[C@]12C (some centres undefined)
6.2,6.2,> 100,> 100,> 100,6.2,> 100,7.24,CC[C@H]1OC(=O)[C@H](C)[C@@H](OC(=O)N2C(=O)OC[C@@H]2C)[C@H](C)[C@@H](OC2O[C@H](C)C[C@H](N(C)C3CCCCC3)[C@H]2O)[C@@](C)(OC)C[C@@H](C)C(=O)[C@H](C)[C@H]2N(CCc3ccc(Cl)c(Cl)c3)C(=O)O[C@]12C (some centres undefined)
1.56,0.78,100,3.1,12.5,0.78,> 100,18.6,CC[C@H]1OC(=O)[C@H](C)[C@@H](OC(=O)N2C(=O)OC[C@@H]2C)[C@H](C)[C@@H](OC2O[C@H](C)C[C@H](N(C)CC3CC3)[C@H]2O)[C@@](C)(OC)C[C@@H](C)C(=O)[C@H](C)[C@H]2N(CCc3ccc(Cl)cc3)C(=O)O[C@]12C (some centres undefined)
0.78,0.78,25,1.56,1.56,0.78,50,7.59,CC[C@H]1OC(=O)[C@H](C)[C@@H](OC2C[C@@](C)(OC)[C@@H](O)[C@H](C)O2)[C@H](C)[C@@H](OC2O[C@H](C)C[C@H](N(C)C3CCCC3)[C@H]2O)[C@@](C)(OC)C[C@@H](C)C(=O)[C@H](C)[C@H]2N(CCc3ccc(Cl)cc3)C(=O)O[C@]12C (some centres undefined)

# Second part, the compound before the results:
SMILES,MIC (Streptococcus agalactiae) [µg/mL],MIC (Streptococcus pyogenes) [µg/mL],MIC (Staphylococcus aureus) [µg/mL],MIC (Enterococcus faecium) [µg/mL],MIC (Micrococcus luteus) [µg/mL],MIC (Streptococcus equinus) [µg/mL],MIC [1] [µg/mL],Ki [2] [nM]
CC[C@H]1OC(=O)[C@H](C)[C@@H](OC(=O)N2C(=O)OC[C@@H]2C)[C@H](C)[C@@H](OC2O[C@H](C)C[C@H](N(C)C3CCCC3)[C@H]2O)[C@@](C)(OC)C[C@@H](C)C(=O)[C@H](C)[C@H]2N(CCc3ccc(Cl)cc3)C(=O)O[C@]12C (some centres undefined),3.1,3.1,> 100,6.2,12.5,3.1,> 100,3.89
CC[C@H]1OC(=O)[C@H](C)[C@@H](OC(=O)N2C(=O)OC[C@@H]2C)[C@H](C)[C@@H](OC2O[C@H](C)C[C@H](N(C)C(C)C)[C@H]2O)[C@@](C)(OC)C[C@@H](C)C(=O)[C@H](C)[C@H]2N(CCc3ccc(Cl)cc3)C(=O)O[C@]12C (some centres undefined),,0.02,25,0.78,0.78,0.1,25,
CC[C@H]1OC(=O)[C@H](C)[C@@H](O)[C@H](C)[C@@H](OC2O[C@H](C)C[C@H](N(C)C)[C@H]2O)[C@@](C)(OC)C[C@@H](C)C(=O)[C@H](C)[C@H]2N(CCc3ccc(Cl)cc3)C(=O)O[C@]12C (some centres undefined),0.02,,12.5,1.56,0.78,,12.5,
CC[C@H]1OC(=O)[C@H](C)[C@@H](OC2C[C@@](C)(OC)[C@@H](O)[C@H](C)O2)[C@H](C)[C@@H](OC2O[C@H](C)C[C@H](NC)[C@H]2O)[C@@](C)(OC)C[C@@H](C)C(=O)[C@H](C)[C@H]2N(CCc3ccc(Cl)cc3)C(=O)O[C@]12C (some centres undefined),0.05,0.1,1.56,0.39,0.2,0.2,1.56,79.4
CC[C@H]1OC(=O)[C@H](C)[C@@H](OC2C[C@@](C)(OC)[C@@H](O)[C@H](C)O2)[C@H](C)[C@@H](OC2O[C@H](C)C[C@H](N(C)C3CCCCC3)[C@H]2O)[C@@](C)(OC)C[C@@H](C)C(=O)[C@H](C)[C@H]2N(CCc3ccc(Cl)cc3)C(=O)O[C@]12C (some centres undefined),12.5,0.78,> 100,25,12.5,3.1,> 100,204
CC[C@H]1OC(=O)[C@H](C)[C@@H](OC2C[C@@](C)(OC)[C@@H](O)[C@H](C)O2)[C@H](C)[C@@H](OC2O[C@H](C)C[C@H](N(C)C)[C@H]2O)[C@@](C)(OC)C[C@@H](C)C(=O)[C@H](C)[C@H]2N(CCc3ccc(Cl)cc3)C(=O)O[C@]12C (some centres undefined),0.2,,0.39,0.1,0.05,0.2,0.39,191
CC[C@H]1OC(=O)[C@H](C)[C@@H](OC(=O)N2C(=O)OC[C@@H]2C)[C@H](C)[C@@H](OC2O[C@H](C)C[C@H](N(CC3CC3)CC3CC3)[C@H]2O)[C@@](C)(OC)C[C@@H](C)C(=O)[C@H](C)[C@H]2N(CCc3ccc(Cl)c(Cl)c3)C(=O)O[C@]12C (some centres undefined),100,50,> 100,> 100,100,50,> 100,1.29
CC[C@H]1OC(=O)[C@H](C)[C@@H](O[C@H]2C[C@@](C)(OC)[C@@H](O)[C@H](C)O2)[C@H](C)[C@@H](O[C@@H]2O[C@H](C)C[C@H](N(C)C)[C@H]2O)[C@](C)(O)C[C@@H](C)C(=O)[C@H](C)[C@@H](O)[C@]1(C)O [ERYTHROMYCIN],0.05,0.05,0.2,0.05,0.02,0.05,0.2,
